We go through 3 compounds from US9416130B2, “4-(8-methoxy-1-((1-methoxypropan-2-yl)-2-(tetrahydro-2H-pyran-4-yl)-1 H-imidazo[4,5-C]quinolin-7-yl)-3,5-dimethylisoxazole and its use as bromodomain inhibitor” (GlaxoSmithKline LLC, priority 2011, dated 2016).

Where two headings read alike, the source gives them in different places.

The subject of test [1] is LPS induced IL-6 secretion from whole blood. Kind of test: LPS induced IL-6 secretion from whole blood. It is filed as cell-based. The settings on record: LPS 200 ng/ml, 24 hours, IL-6 immunoassay. As for the experimental part: Measurement of LPS Induced IL-6 Secretion from Whole Blood
Activation of monocytic cells by agonists of toll-like receptors such as bacterial lipopolysaccharide (LPS) results in production of key inflammatory mediators including IL-6. Such pathways are widely considered to be central to the pathophysiology of a range of auto-immune and inflammatory disorders.
Compounds to be tested are diluted to give a range of appropriate concentrations of which 1 μl of the diluted stocks is added to a 96 well plate. Following addition of whole blood (130 ul) the plates are incubated at 37 degrees (5% CO2) for 30 min before the addition of 10 μl of 2.8 ug/ml LPS, diluted in complete RPMI 1640 (final concentration=200 ng/ml), to give a total volume of 140 μl per well. After further incubation for 24 hours at 37 degrees, 140 μl of PBS are added to each well. The plates are sealed, shaken for 10 minutes and then centrifuged (2500 rpm×10 min). 100 μl of the supernatant are removed and IL-6 levels assayed by immunoassay (typically by MesoScale Discovery technology) either immediately or following storage at −20 degrees. Concentration response curves for each compound was generated from the data and an IC50 value was calculated

Test [2] relates to LPS-induced serum IL-6. In words: In vivo mouse model to demonstrate modulation of pro-inflammatory response (i.v. LPS). Also on record: species or system Male CD1 mice. The settings on record: for reduced maximum (Cmax) IL-6 levels / reduced total exposures (AUC) of IL-6: 1 h before i.v. LPS 100 μg/kg, mouse. As to the method:
Male CD1 mice (25-30 g, n=4 per group) received a single i.v. bolus injection of LPS (100 μg/kg) via the tail vein 1 h after pre-treatment with a single oral administration of either vehicle (1% (w/v) methylcellulose in sterile water) or the test compound (3, 10 and 30 mg/kg). Serial blood samples were obtained from the tail vein by direct venepuncture at various time points up to 5 h post-LPS administration for analysis of IL-6 and the test compound concentrations by Meso Scale Discovery (MSD) analysis and LC-MS/MS respectively.

For test [3], the system named is Multiple myeloma cell lines. In words: Oncology cell growth assay (384-well, CellTiter-Glo). The format is cell-based, Human. As for the experimental part: (§1) Oncology Cell Growth Assay
(§2) Human cell lines (n=80 comprising cell lines described in Table 2 below) were cultured in RPMI-1640 containing 10% fetal bovine serum, 1000 viable cells per well were plated in 384-well black flat bottom polystyrene plates (Greiner #781086) in 48 μl of culture media. All plates were placed at 5% CO2, 37° C. overnight. The following day one plate was harvested with CellTiter-Glo (CTG, Promega #G7573) for a time equal to 0 (T0) measurement and compound (20 point titration from 14.7 uM to 7 pM) was added to the remaining plates. The final concentration of DMSO in all wells was 0.15%. Cells were incubated for 72 hours or the indicated time and each plate was developed with CellTiter-Glo reagent using a volume equivalent to the cell culture volume in the wells. Plates were shaken for approximately 2 minutes and chemiluminescent signal was read on the Analyst GT (Molecular Devices) or EnVision Plate Reader (Perkin Elmer).
(§3) Results are expressed as a percent of the T0 and plotted against the compound concentration. The T0 value was normalized to 100% and represents the number of cells at time of compound addition and the concentration response data were fit with a 4 parameter curve fit using XLfit software (model 205). The concentration that inhibited cell growth by 50% (gIC50) is the midpoint of the ‘growth window’ (between the T0 and DMSO control). The Ymin−T0 value is determined by subtracting the T0 value (100%) from the Ymin value (%) determined from the fit of the concentration response curve. Values from the wells with no cells were subtracted from all samples for background correction.
On the technique in general: ATP-based viability assays read luminescence as a measure of living cells.

The subject of test [4] is Cervical cancer cell lines. Described as above. It is filed as cell-based. To be noted: Homo sapiens; range over 4 cervical cancer cell lines; read-out: gIC50. As to the method:
as §1, §2, §3

The subject of test [5] is Esophageal cell lines. Described as above. The format is cell-based. To be noted: Homo sapiens. As to the method:
as §1, §2, §3

The subject of test [6] is NUT-midline carcinoma cell lines. The description is as above. It is filed as cell-based. To be noted: Homo sapiens; range over 2 NUT-midline carcinoma cell lines; read-out: gIC50. As for the experimental part:
as §1, §2, §3

The test system of test [7] is Neuroblastoma cell lines. The description is as above. It is filed as cell-based. To be noted: Homo sapiens. As to the method:
as §1, §2, §3

For test [8], the system named is Small cell lung cancer (SCLC) cell lines. The test is described as above. To be noted: Homo sapiens. It is filed as cell-based. As to the method: as §1, §2, §3
Test [9] concerns Acute monocytic leukemia cell line. In words: Oncology cell growth assay (analogous procedure, 96 well plates). The format is cell-based. To be noted: Homo sapiens, 1 acute monocytic leukemia line, read-out: gIC50. As for the experimental part: as §2, §3
(§4) The compound of Example 2 was also tested in accordance with an analogous procedure using 96 well plates along with appropriate modifications to volumes and concentrations that would be apparent to those skilled in the art.

Test [10] concerns Acute promyelocytic leukemia cell line. Described as above. The format is cell-based. The settings on record: Homo sapiens, 1 acute promyelocytic leukemia line, read-out: gIC50. As for the experimental part:
as §2, §3, §4

For test [11], the system named is Breast cancer (ductal) cell line. Described as above. The format is cell-based. To be noted: Homo sapiens, 1 breast cancer (ductal) line, read-out: gIC50. As for the experimental part: as §2, §3, §4
In test [12] the test system is Burkitt's lymphoma cell lines. Described as above. The format is cell-based. The settings on record: Homo sapiens, Burkitts lymphoma cell, range over 3 Burkitt's lymphoma lines, read-out: gIC50. As for the experimental part: as §2, §3, §4
The test system of test [13] is Chronic myeloid leukemia cell line. The description is as above. The format is cell-based. To be noted: Homo sapiens, 1 chronic myeloid leukemia line, read-out: gIC50. As to the method:
as §2, §3, §4

Test [14] relates to Cutaneous T cell lymphoma cell line. The description is as above. To be noted: Homo sapiens, 1 cutaneous T cell lymphoma line, read-out: gIC50. It is filed as cell-based. As for the experimental part:
as §2, §3, §4

Test [15] deals with Ovarian carcinoma cell line. The description is as above. The format is cell-based. To be noted: Homo sapiens, 1 ovarian carcinoma line, read-out: gIC50. As for the experimental part:
as §2, §3, §4

Where [16] appears, read: positive control, maximal reduction observed, mouse LPS model.

Regarding `COC[C@@H](C)n1c(C2CCOCC2)nc2cnc3cc(-c4c(C)noc4C)c(OC)cc3c21` [Example 2, 4-(8-methoxy-1-((R)-1-methoxypropan-2-yl)-2-(tetrahydro-2H-pyran-4-yl)-1H-imidazo[4,5-c]quinolin-7-yl)-3,5-dimethylisoxazole], the IC50 in [1] is 100 to 1000 nM; in test [3] (Homo sapiens, median of 16 multiple myeloma cell lines, read-out: gIC50 (median)) it was 414 nM; in [3] (Homo sapiens, range over 16 multiple myeloma cell lines, 72 hours, read-out: gIC50) it was at least 1.1 nM; in test [3] (range for 15 out of 16 multiple myeloma cell lines, read-out: gIC50), 1.1 to 2000 nM; in test [4] it was 266 to 847 nM; in test [5] (median of 8 esophageal cell lines, read-out: gIC50 (median)) it was 759 nM. Moreover, the IC50 in [5] (range over 8 esophageal cell lines, read-out: gIC50) is 208 to 1540 nM; in test [6] it was 59 to 66 nM; in test [7] (median of 12 neuroblastoma cell lines, read-out: gIC50 (median)), 193 nM; in [7] (range over 12 neuroblastoma cell lines, read-out: gIC50), 25 to 435 nM; in [8] (median of 38 SCLC cell lines, read-out: gIC50 (median)) it was 538 nM; in [8] (range for 35 of the 38 SCLC cell lines, read-out: gIC50) it was 76 to 2500 nM. In addition, the IC50 in test [8] (range over 38 SCLC cell lines, 72 hours, read-out: gIC50) was at least 76 nM; in [9] it was 123 nM; in test [10] it was 141 nM; in test [11], 537 nM; in test [12] it was 181 to 807 nM; in [13], 776 nM. The results for the IC50 in test [14] and in test [15] were 162 nM and 707 nM, respectively. Besides, the “reduced maximum (Cmax) IL-6 levels” value turned out to be 46% in [2] (3 mg/kg single oral), 79% in test [2] (10 mg/kg single oral) and 73% in [2] (30 mg/kg single oral). Also, the “reduced total exposures (AUC) of IL-6” value in test [2] (3 mg/kg single oral) turned out to be 35%; in [2] (10 mg/kg single oral), 70%; in test [2] (30 mg/kg single oral), 63%.
The compound `COCC(C)n1c(C2CCOCC2)nc2cnc3cc(-c4c(C)noc4C)c(OC)cc3c21` (centres unmarked) [Example 1, 4-(8-methoxy-1-(1-methoxypropan-2-yl)-2-(tetrahydro-2H-pyran-4-yl)-1H-imidazo[4,5-c]quinolin-7-yl)-3,5-dimethylisoxazole] had an IC50 in [1] of 100 to 1000 nM.
As to `C[C@@H]1C[C@H]2[C@@H]3CCC4=CC(=O)C=C[C@]4(C)[C@@]3(F)[C@@H](O)C[C@]2(C)[C@@]1(O)C(=O)CO` [dexamethasone, reference compound], in test [2] (setting [16]), the “reduction in IL-6 AUC” value worked out at 70% and the “reduction in IL-6 Cmax” value is on record as 73%.
